The values below come from patent publication US20030064895A1, “Genes for s-adenosyl l-methionine: jasmonic acid carboxyl methyltransferase and a method for the development of pathogen-and stress-resistant plants using the genes” (priority 2000, published 2003).

Entries after “also recorded” stand apart in the source; their conditions may differ.

One assay has as its target T1, JMT enzyme (GST-JMT) (Arabidopsis thaliana, UniProt Q9AR07).
T1 construct: it could be noted that this selected cDNA clone is a full-length cDNA clone; made in house; host or cells: E. coli BL21 (pGEX-2T, plasmid pGST-JMT)
T1 sequence (Q9AR07 1-389): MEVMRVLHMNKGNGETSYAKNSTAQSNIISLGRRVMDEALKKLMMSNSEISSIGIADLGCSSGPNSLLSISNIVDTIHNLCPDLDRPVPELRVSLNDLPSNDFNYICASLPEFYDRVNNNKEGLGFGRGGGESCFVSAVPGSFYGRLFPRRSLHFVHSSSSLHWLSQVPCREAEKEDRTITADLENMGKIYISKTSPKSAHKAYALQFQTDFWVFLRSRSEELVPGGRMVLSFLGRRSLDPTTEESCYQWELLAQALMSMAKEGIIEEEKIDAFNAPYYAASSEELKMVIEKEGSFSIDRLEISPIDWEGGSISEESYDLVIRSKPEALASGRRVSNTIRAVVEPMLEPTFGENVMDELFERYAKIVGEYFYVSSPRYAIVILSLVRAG
The experiment in a line: Substrate specificity of fusion enzyme protein GST-JMT with SAM / [14C]SAM. The class given is biochemical. The settings on record: reaction with JA defined to be 100%.

The target in assay [1] is T2, jasmonic acid carboxyl methyltransferase (Arabidopsis thaliana, UniProt Q9AR07).
T2 construct: it could be noted that this selected cDNA clone is a full-length cDNA clone; made in house; host or cells: E. coli BL21 (pGEX-2T, plasmid pGST-JMT)
T2 sequence (Q9AR07 1-389): T1 sequence (Q9AR07 1-389)
The experiment in a line: Kinetic parameters of recombinant JMT protein (Lineweaver-Burk plot). The note with it: named substance as substrate of recombinant JMT; for Km: SAM and JA as substrates. The class given is biochemical.

The subject of assay [2] is pathogens belonging to Phytium genus. The note with it: treatment at the level of 130 μM; cited from earlier work.

For the molecule `O=C(O)c1ccccc1` [BA, benzoic acid], at JMT enzyme (GST-JMT), the “reactivity as methyl acceptor substrate of JMT enzyme” value is “substantially not react; also recorded: substantially not proceeded”.
Same read-out and setting: under `O=C(O)c1ccccc1O` [SA, salicylic acid] stands “substantially not react; also recorded: substantially not proceeded”.
Turning to S-adenosyl methionine [SAM], in assay [1], the Kcat came out at 70 s⁻¹, the Vm stood at 84 nmol/min and the Michaelis-Menten constant (Km) stood at 6.3 µM.
As for jasmonic acid [(±)JA], the “effect on the growth of pathogen” value in assay [2] is recorded as “no effect”. Also, on JMT enzyme (GST-JMT), the “reactivity as methyl acceptor substrate of JMT enzyme” value was “high reactivity”. Besides, in assay [1], the Kcat turned out to be 15 s⁻¹, the Vm stood at 30 nmol/min and the Km came out at 38.5 µM.

By Km is commonly meant the substrate concentration at which the rate is half of its maximum.
